Measurements as given in patent publication US10647680B2, “Urea compound, preparation method therefor and medical use thereof” (Ancureall Pharmaceutical (Shanghai) Co., Ltd., priority 2016, dated 2020).

Legend:
U937 (FLT3 wild-type) = assay: In vitro growth inhibition (GI50), U937; type: cell-based; conditions: Homo sapiens, U-937; Cell lines of leukemia; read-out: GI 50 U937 FLT 3(WT)
[1] = tested on: KG-1 (expressing FGFR1OP2-FGFR1 fusion protein); assay: In vitro growth inhibition (GI50), KG-1; type: cell-based; conditions: Homo sapiens; Cell lines of leukemia; read-out: GI 50 KG-1 FGFR1OP 2-FGFR1
[2] = tested on: K562 (FLT3 negative expression, positive expression of BCR-ABL fusion protein); assay: In vitro growth inhibition (GI50), K562; type: cell-based; conditions: Homo sapiens, Cell lines of leukemia, read-out: GI 50 K562 BCR-ABL
[3] = tested on: Kasumi-1 (c-Kit N822K mutant type); assay: In vitro growth inhibition (GI50), Kasumi-1; type: cell-based; conditions: Homo sapiens, Cell lines of leukemia, read-out: GI 50 Kasumi-1 Kit (N822K)
Outline: (§1)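 Cells in RPMI1640 with 10% FBS, seeded at 5–10×10^4 cells/mL, exposed next day to compound at 5,000 nM down to 0.01 nM (2- or 10-fold dilutions, ≤1% solvent) for 3–5 days at 37 °C. CCK8 absorbance at 450 nm, growth rate relative to pre-treatment and solvent controls, GI50 from concentration–growth curve.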

[4] = tested on: OCI-AML3 (NPMc+ mutant type); assay: In vitro growth inhibition (GI50), OCI-AML3; type: cell-based; conditions: Homo sapiens, OCI-AML-3; Cell lines of leukemia; read-out: GI 50 OCI- AML3 NPMc+
HL-60 (FLT3 wild type) = assay: In vitro growth inhibition (GI50), HL-60; type: cell-based; conditions: Homo sapiens, Cell lines of leukemia, read-out: GI 50 HL60 FLT3 (WT)
Outline: as §1

[5] = tested on: MOLM-13 (FLT3 ITD+/− mutant type); assay: In vitro growth inhibition (GI50), MOLM-13; type: cell-based, human; conditions: Homo sapiens, MOLM-13; Cell lines of leukemia; read-out: GI 50 MOLM-13 FLT3 (ITD+/−)
[6] = tested on: RAMOS (positive expression of Brutons tyrosine protein kinase); assay: In vitro growth inhibition (GI50), RAMOS; type: cell-based; conditions: Homo sapiens, Cell lines of leukemia, read-out: GI 50 Ramos BTK
[7] = tested on: MV4-11 (FLT3 ITD+/+ mutant type); assay: In vitro growth inhibition (GI50), MV4-11; type: cell-based, human; conditions: Homo sapiens, MV4-11; Cell lines of leukemia; read-out: GI 50 MV4-11 FLT3 (ITD +/+)
RS4; 11 (FLT3 wild type) = assay: In vitro growth inhibition (GI50), RS4; 11; type: cell-based, human; conditions: Homo sapiens, RS4-11; Cell lines of leukemia; read-out: GI 50 RS4: 11 FLT3 (WT)

Row | SMILES | GI50 (U937 (FLT3 wild-type)) [nM] | GI50 [2] [nM] | GI50 [4] [nM] | GI50 (HL-60 (FLT3 wild type)) [nM] | GI50 [5] [nM] | GI50 [6] [nM] | GI50 [7] [nM] | GI50 (RS4; 11 (FLT3 wild type)) [nM] | GI50 [1] [nM] | GI50 [3] [nM]
1 | CC(C)(C)c1cc(NC(=O)Nc2ccc(-n3cnc4cccnc43)cc2)no1 [Compound 50, 1-(5-tert-butyl-isoxazol-3-yl)-3-(4-imidazo[4,5-b]pyridin-3-yl-phenyl)-urea] | > 1000 | > 1000 | > 1000 | > 1000 | 0.1 to 1 | > 1000 | 0.1 to 1 | > 1000 | > 1000 | > 1000
2 | CC1(COc2ccc3c(c2)ncn3-c2ccc(NC(=O)Nc3cc(C(C)(C)C)on3)cc2)COC1 [Compound 9, 1-(5-tert-butyl-isoxazol-3-yl)-3-{4-[5-(3-methyl-oxetan-3-ylmethoxy)-benzimidazol-1-yl]-phenyl]urea] | > 1000 | > 1000 | > 1000 | > 1000 | 0.1 to 1 | > 1000 | 0.1 to 1 | > 1000 | > 1000 | > 1000
3 | CC(C)(C)c1cc(NC(=O)Nc2ccc(-n3cnc4cccc(OCCN5CCOCC5)c43)cc2)no1 [Compound 30, 1-(5-tert-butyl-isoxazol-3-yl)-3-{4-[7-(2-morpholin-4-yl-ethoxyl)-benzimidazol-1-yl]-phenyl}-urea] | > 1000 | > 1000 | > 1000 | 100 to 1000 | > 1000 | > 1000 | > 1000 | > 1000 | > 1000 | > 1000
4 | Cc1cc(NC(=O)Nc2cc(C(C)(C)C)on2)ccc1-n1cnc2ccccc21 [Compound 37, 1-(4-benzimidazol-1-yl-3-methyl-phenyl)-3-(5-tert-butyl-isoxazol-3-yl)-urea] | > 1000 | > 1000 | > 1000 | > 1000 | 100 to 1000 | > 1000 | 100 to 1000 | > 1000 | > 1000 | > 1000
5 | CC(C)(C)c1cc(NC(=O)Nc2ccc(-n3cnc4c(F)cccc43)cc2)no1 [Compound 34, 1-(5-tert-butyl-isoxazol-3-yl)-3-[4-(4-fluoro-benzimidazol-1-yl)-phenyl]-urea] | > 1000 | > 1000 | > 1000 | > 1000 | 0.1 to 1 | > 1000 | 0.1 to 1 | > 1000 | > 1000 | > 1000

More lines, main results first:

Row | GI50 (U937 (FLT3 wild-type)) [nM] | GI50 [2] [nM] | GI50 [4] [nM] | GI50 (HL-60 (FLT3 wild type)) [nM] | GI50 [5] [nM] | GI50 [6] [nM] | GI50 [7] [nM] | GI50 (RS4; 11 (FLT3 wild type)) [nM] | SMILES | GI50 [1] [nM] | GI50 [3] [nM]
6 | > 1000 | > 1000 | > 1000 | 100 to 1000 | 0.1 to 1 | > 1000 | 0.1 to 1 | > 1000 | CC(C)(C)c1cc(NC(=O)Nc2ccc(-n3cnc4cc(OCC5CCCO5)ccc43)cc2)[nH]n1 (centres unmarked) [Compound 86, 1-(5-tert-butyl-2H-pyrazol-3-yl)-3-{4-[5-(tetrahydrofuran-2-ylmethoxy)-benzimidazol-1-yl]-phenyl}-urea] | > 1000 | > 1000
7 | > 1000 | > 1000 | > 1000 | > 1000 | 1 to 10 | > 1000 | 1 to 10 | > 1000 | CNC(=O)c1cc(Oc2ccc3c(c2)ncn3-c2ccc(NC(=O)Nc3cc(C(C)(C)C)n[nH]3)cc2)ccn1 [Compound 96, 4-(1-{4-[3-(5-tert-butyl-2H-pyrazol-3-yl)-carbamido]-phenyl}-1H-benzimidazol-5-yloxy)-pyridin-2-carboxymethylamine] | > 1000 | > 1000
8 | > 1000 | 100 to 1000 | 100 to 1000 | > 1000 | 10 to 100 | > 1000 | 10 to 100 | 100 to 1000 | CC(C)(C)c1cc(NC(=O)Nc2ccc(-n3cnc4ccccc43)cc2)n(-c2ccc(F)cc2)n1 [Compound 108, 1-(4-benzimidazol-1-yl-phenyl)-3-[5-tert-butyl-2-(4-fluoro-phenyl)-2H-pyrazol-3-yl]-urea] | > 1000 | > 1000
